Results taken from patent US20260232753A1, “COMPOSITION FOR TREATING MACULAR DEGENERATION COMPRISING NOVEL PEPTIDE” (EYEBIOKOREA, INC., priority 2021, published 2026).
Converted amounts (≈) assume the structure as drawn. Where a SMILES comes first, the peptide text is derived from it. Where no end group is shown, it is not given here. [ ]: non-standard residue; d: D form. Hyp = O=C(O)[C@@H]1C[C@@H](O)CN1; Tle = CC(C)(C)[C@H](N)C(=O)O; Aib = CC(C)(N)C(=O)O

Assays:
[1] = Solubility of the peptide in water (Korean Pharmacopoeia method); type: physicochemical; details: 20±5° C.; for solubility: within 30 minutes
Protocol: In order to evaluate the solubility of the peptide of the present invention, an experiment was performed as follows.
The solubility test was conducted based on the Korean Pharmacopoeia method, and the solubility was determined as the degree to which 0.1 g of peptide was dissolved within 30 minutes when added to 10 mL of water and shaken vigorously for 30 seconds every 5 minutes at 20±5° C.

[2] = Stability of the peptide: content analysis by HPLC in aqueous solution under harsh conditions; type: physicochemical
Protocol: In order to evaluate the stability of the peptide of the present invention, an experiment was performed as follows.
The stability of the peptide was confirmed through content analysis in an aqueous solution at 40° C., 75% humidity, and harsh conditions, and was analyzed using HPLC under the following conditions. • Analysis column: C18 (4.6 Y 250 mm, 5 μm, YMC Hydrosphere) • Analysis wavelength: ultraviolet absorption spectrophotometer (210 nm) • Injection volume/Flow rate: 10 μL/0.8 mL/min • Column temperature: 45° C. • Mobile phase: 0.1 M phosphate buffer methanol mixture (83:17)

[3] = system: choroidal neovascularization (CNV); assay: Inhibition of choroidal neovascularization: fluorescence value (CTF) at the CNV site by FFA, laser-induced CNV model, intravitreal injection; type: in vivo, C57BL/6 mice; details: laser-induced CNV; 1 μL intravitreal, peptide 10 mg/mL or aflibercept 20 mg/mL; ten days after administration; lower CTF = less CNV
Excerpt: (§1) The CNV animal model used in the present invention is a mouse model in which lesions are induced by irradiating a laser to the choroid of C57BL/6 mice using a laser slit system. The laser-induced CNV model, first described in 1979, uses photocoagulation to disturb Bruch's membrane to induce the growth of choroidal neovascularization into the retina area, and it is similar in development to neovascular disease in the human retina, that is, wet macular degeneration (wet AMD), in that neovascularity arises from the choroid. In addition, the laser-induced CNV model was successful in predicting the clinical efficacy of anti-vascular endothelial growth factor (VEGF) treatment for neovascular AMD, and is an animal model used in the development stage of existing therapeutic agents (Gong Y, Li J, Sun Y, Fu Z, Liu C H, Evans L, et al. (2015) Optimization of an Image-Guided Laser-Induced Choroidal Neovascularization Model in Mice. PLOS ONE 10 (7)).
(§2) In order to evaluate the efficacy of the peptide of the present invention to inhibit the choroidal neovascularization (CNV), an experiment was performed as follows.
(§3) The eyes of 7-8 week old C57BL/6 mice were instilled with a mydriatic agent to dilate the pupils, and the mice were anesthetized by intraperitoneal injection of ketamine (50 mg/kg) and rompun (23.32 mg/kg). A slit-lamp laser injection system was used to irradiate the laser to the choroid of each eye of the mouse four times in the 12 o'clock, 3 o'clock, 6 o'clock, and 9 o'clock directions. At this time, the laser irradiation conditions were 532 nm, 80 msec, and 240 mW. Immediately after laser irradiation, 1 μL of each peptide at a concentration of 10 mg/mL or aflibercept at a concentration of 20 mg/mL, which was dissolved in PBS, was injected into the vitreous body using a syringe. Ten days after drug administration, the mice were anesthetized, and 2% fluorescein was administered to the abdominal cavity to stain blood vessels. The retina was photographed 2 to 3 minutes after fluorescein administration. The size and fluorescence value of CNV lesions induced by laser were measured using the ImageJ program, and in order to reduce the differences between subjects, the CTF (corrected total fluorescence) was calculated by removing the background, and the values of each group were compared. The results of all tests are expressed as mean±standard deviation, and significance was verified using one-way ANOVA and Kruskal-wallis test.

[4] = system: choroidal neovascularization (CNV); assay: Inhibition of choroidal neovascularization: electroretinography, b-wave amplitude as indicator of retinal function; type: in vivo, C57BL/6 mice; details: laser-induced CNV; 1 μL intravitreal, peptide 10 mg/mL or aflibercept 20 mg/mL; single white light 0.9 cd·sec/m^2
Excerpt: as §1, §2
The eyes of 7-8 week old C57BL/6 mice were instilled with a mydriatic agent to dilate the pupils, and the mice were anesthetized by intraperitoneal injection of ketamine (50 mg/kg) and rompun (23.32 mg/kg). A slit-lamp laser injection system was used to irradiate the laser to the choroid of each eye of the mouse four times in the 12 o'clock, 3 o'clock, 6 o'clock, and 9 o'clock directions. At this time, the laser irradiation conditions were 532 nm, 80 msec, and 240 mW. Immediately after laser irradiation, 1 μL of each peptide at a concentration of 10 mg/mL or aflibercept at a concentration of 20 mg/mL, which was dissolved in PBS, was injected into the vitreous body using a syringe. For electroretinogram analysis, dark adaptation was performed for more than 12 hours. The mice were subjected to mydriasis in a dark room and anesthetized, and then electroretinography was performed by contacting the ground electrode to the tail, the reference electrode to the head, and the corneal electrode to the cornea. The response values were obtained by stimulating the retina with a single white light of 0.9 cd·sec/m^2 flash intensity, and the amplitude, which is determined from the trough of the a-wave to the peak of the b-wave, was measured and evaluated as an indicator of retinal function. The results of all tests are expressed as mean #standard deviation, and significance was verified using one-way ANOVA and Kruskal-wallis test.

[5] = system: choroidal neovascularization (CNV); assay: Inhibition of choroidal neovascularization: optical coherence tomography, size of CNV lesion, intravitreal injection; type: in vivo, C57BL/6 mice; details: laser-induced CNV; 1 μL intravitreal, peptide 10 mg/mL or aflibercept 20 mg/mL; ten days after administration; OCT
Excerpt: as §1, §2
as §3, with “and” for “and 2% fluorescein was administered to”, “the” for “the abdominal cavity to stain blood vessels. The retina was photographed 2 to 3 minutes after fluorescein administration. The size and fluorescence value of”, “calculated and expressed as μm^2” for “measured”, “program” for “program, and in order to reduce the differences between subjects, the CTF (corrected total fluorescence) was calculated”, “transmitting an OCT beam for” for “removing the background, and the values of”, “burn.” for “group were compared.”

[6] = system: neovascularity; assay: Eye drop efficacy to inhibit neovascularity in Vldlr knockout mice: lesion area by retinal fluorescence imaging; type: in vivo
Excerpt: A symptom of neovascular macular degeneration is retinal angiomatous proliferation (RAP), which occurs in approximately 12 to 15% of patients who are newly diagnosed with neovascular macular degeneration. Meanwhile, Vldlr is known to be one of the functional candidate genes for human macular degeneration, and mice in which Vldlr is knocked out (−/−) show retinal hemangioma proliferation along with subretinal neovascularization. Therefore, in order to evaluate the neovascularity inhibitory efficacy of the eye drop comprising the peptide of Example 43 (002-175), which was confirmed to be an excellent peptide through the above test examples, in Vldlr knockout (−/−) mice, an animal model of neovascular macular degeneration disease, an experiment was performed as follows.
From 6 weeks of age (P42) to 14 weeks of age (P98), Vldlr^−/− mice were instilled with the eye drop comprising the peptide of Example 43 (002-175) twice a day, and as a positive control group, aflibercept at a concentration of 20 mg/mL was intraocularly injected once, 1 μL each, into the vitreous body of 6 week old mice. The eyes of the mice were instilled with a mydriatic agent to dilate the pupils, and then the mice were anesthetized by intraperitoneal injection of ketamine (50 mg/kg) and rompun (23.32 mg/kg), and 2% fluorescein was injected to the abdominal cavity to stain blood vessels. Images were acquired through retinal fluorescence imaging, and the lesion area was calculated using the ImageJ program, and the results of the experiment are shown in FIGS. 10 and 11.

| Molecule | solubility [1] | CTF (corrected total fluorescence) value [3] | b-wave amplitude [4] | Size of lesion [5] | further results |
| --- | --- | --- | --- | --- | --- |
| CC(C)C[C@H](NC(=O)CNC(=O)[C@H](CCC(=O)O)NC(=O)[C@H](CCC(N)=O)NC(=O)CNC(=O)[C@@H]1C[C@@H](O)CN1)C(=O)N[C@@H](C)C(=O)O [Example 40, Hyp-Gly-Gln-Glu-Gly-Leu-Ala] (H-[Hyp]GQEGLA-OH; N-terminus and C-terminus assumed) | ≥ 330 mg/mL | – | – | – | – |
| CC(C)C[C@H](NC(=O)C(C)(C)NC(=O)[C@H](CCC(=O)O)NC(=O)[C@H](CCC(N)=O)NC(=O)CNC(=O)[C@@H]1C[C@@H](O)CN1)C(=O)N[C@@H](C)C(=O)O [Example 43, Hyp-Gly-Gln-Glu-Aib-Leu-Ala] (H-[Hyp]GQE[Aib]LA-OH; N-terminus and C-terminus assumed) | ≥ 500 mg/mL | – | – | – | Solubility (in words) [1]: most excellent solubility; Stability (in words) ([2]; 40° C., 75% humidity, 7 days): most excellent stability |
| CC(C)C[C@H](NC(=O)[C@@H](NC(=O)[C@H](CCC(=O)O)NC(=O)[C@H](CCC(N)=O)NC(=O)CNC(=O)[C@@H]1C[C@@H](O)CN1)C(C)(C)C)C(=O)N[C@@H](C)C(=O)O [Example 44, Hyp-Gly-Gln-Glu-tert-Leu-Leu-Ala] (H-[Hyp]GQE[Tle]LA-OH; N-terminus and C-terminus assumed) | 100 mg/mL (≈ 135 mM) | – | – | – | – |
| Hyp-Gly-Gln-Glu-Leu-Leu-Ala ([Hyp]GQELLA) [Example 41] | – | + (+: 300,000 to 800,000) | 510 μV | 4,960 μm^2 | Content after 7 days ([2]; 40° C., 75% humidity, 7 days): 97.555%; Decrease rate ([2]; 40° C., 75% humidity, after 7 days): 0.600%; Initial content ([2]; HPLC, initial): 98.155% |
| Hyp-Gly-Gln-Glu-Val ([Hyp]GQEV) [Example 37] | – | + (+: 300,000 to 800,000) | 400 μV | 5,775 μm^2 | – |
| Hyp-Gly-Gln-Glu-Val-Leu-Ala ([Hyp]GQEVLA) [Example 42] | – | + (+: 300,000 to 800,000) | 380 μV | 6,102 μm^2 | – |
| aflibercept [reference compound] | – | + (+: 300,000 to 800,000) | 398 μV | 5,437 μm^2 | Size of the lesion (area of new blood vessels), course during administration (in words) ([6]; P42 to P98, for aflibercept from the 2nd week): gradually increased again; Size of the lesion (area of new blood vessels), 1 week after administration (in words) ([6]; P49): reduced rapidly; Size of the lesion (area of new blood vessels), after 8 weeks (in words) ([6]; P98): reached a size similar to that of the group administered with vehicle |
